The values that follow come from US20160159808A1, “HETEROCYCLIC COMPOUND” (TAKEDA PHARMACEUTICAL COMPANY LIMITED, priority 2013, published 2016).

In one test the target is T1, human PDE2A3 enzyme (Homo sapiens, UniProt O00408).
T1 construct: Human PDE2A3 full-length gene was transduced into Sf9; His-tag; made in house; host or cells: Sf9 insect cells
The test is described as follows: PDE Enzyme Inhibitory Assay (SPA, [3H]cGMP substrate). It is filed as biochemical. The settings on record: compound 1 μM; [3H]cGMP 77 nM; 60 min at room temperature; read-out: inhibitory rate (%) (1 μM). The procedure: PDE Enzyme Inhibitory Assay Human PDE2A3 full-length gene was transduced into Sf9, and human PDE2A3 enzyme was purified by His-tag affinity column and gel filtration. The enzyme was stored at −70° C. until use. PDE activity was measured using a SPA (Scintillation Proximity Assay) (GE Healthcare). To evaluate the inhibitory activity of the compound, 10 μl of serial diluted compounds were reacted with 20 μl of PDE enzyme in assay buffer (50 mM HEPES-NaOH, 8.3 mM MgCl2, 1.7 mM EGTA, 0.1% BSA (pH 7.4)) for 30 min. at room temperature. Final concentration of DMSO in the reaction solution was 1 percent. Compounds were tested in duplicate in 96-well half-area plates (Corning) or 384-well OptiPlate (PerkinElmer). To start the reaction, 10 μl of substrate [^3H] cGMP (final concentration 77 nM, PerkinElmer) was added to a total volume of 40 μl. After reaction for 60 min at room temperature, 20 μl of 20 mg/mL yttrium SPA beads containing zinc sulfate was added to terminate the PDE reaction. After being settled for further 1 hour, the assay plates were counted in a scintillation counter (PerkinElmer) to allow calculation of inhibition rate. Inhibition rate was calculated on the basis of 0% control wells with enzyme and DMSO, and 100% control wells without enzyme.

The subject of a further test is Male C57BL/6 mice. The test is described as follows: Contextual fear conditioning test, MK-801-induced deficits. It is filed as in vivo. Conditions: 30 mg/kg p.o. 60 min before test, MK-801 (maleate) 0.08 mg/kg s.c. 30 min before test, n=10, FIG. 1. As to the method: Improvement effect on MK-801 ((5S,10R)-5-methyl-10,11-dihydro-5H-5,10-epiminodibenzo[a,d][7]annulene)-induced disorder in contextual fear conditioning test.
Male C57BL/6 mice were purchased from CLEA Japan, Inc. They were used for an experiment after a habituation period of at least one week after carrying them in the animal experimental facility. They were bred in the animal experimental facility with environment in which 12-hours light-dark cycle was performed, humidity and temperature were controlled, and free water drinking and feeding were allowed. Handling of experimental animals and experimental procedure of this study were approved by the Experimental Animal Ethics Committee of Takeda Pharmaceutical Company Limited.
A test compound was suspended in 0.5% methylcellulose solution at a dose of 30 mg/kg, and orally administered. MK-801 (maleate) (Sigma-Aldrich, St Louis, Mo.) was dissolved in saline at a dose of 0.08 mg/kg, and subcutaneously administered. All drugs were administered to mice at a dose of 10 mL/kg.
Contextual fear conditioning test is widely used as memory and learning test system depending on the hippocampus and amygdala. The improvement effect of test compounds on MK-801-induced deficits was investigated by contextual fear conditioning test. The test compounds and MK-801 (maleate) were administered 60 min and 30 min, respectively, before the test. 0.5% methylcellulose and saline were administered to the control groups 60 min and 30 min, respectively, before the test. 0.5% methylcellulose and MK-801 (maleate) were administered to the vehicle groups 60 min and 30 min, respectively, before the test. […] In the test session on day 2 of the experiment, mice were placed in the same chamber for 7 minutes, and freezing was measured during that period. The freezing was calculated as a percentage of freezing rates during measuring period with use of an automatic analysis software manufactured by the O'Hara & Co., Ltd. All data were shown as the mean+standard error (n=10). […]

T1 sequence (O00408 whole entry): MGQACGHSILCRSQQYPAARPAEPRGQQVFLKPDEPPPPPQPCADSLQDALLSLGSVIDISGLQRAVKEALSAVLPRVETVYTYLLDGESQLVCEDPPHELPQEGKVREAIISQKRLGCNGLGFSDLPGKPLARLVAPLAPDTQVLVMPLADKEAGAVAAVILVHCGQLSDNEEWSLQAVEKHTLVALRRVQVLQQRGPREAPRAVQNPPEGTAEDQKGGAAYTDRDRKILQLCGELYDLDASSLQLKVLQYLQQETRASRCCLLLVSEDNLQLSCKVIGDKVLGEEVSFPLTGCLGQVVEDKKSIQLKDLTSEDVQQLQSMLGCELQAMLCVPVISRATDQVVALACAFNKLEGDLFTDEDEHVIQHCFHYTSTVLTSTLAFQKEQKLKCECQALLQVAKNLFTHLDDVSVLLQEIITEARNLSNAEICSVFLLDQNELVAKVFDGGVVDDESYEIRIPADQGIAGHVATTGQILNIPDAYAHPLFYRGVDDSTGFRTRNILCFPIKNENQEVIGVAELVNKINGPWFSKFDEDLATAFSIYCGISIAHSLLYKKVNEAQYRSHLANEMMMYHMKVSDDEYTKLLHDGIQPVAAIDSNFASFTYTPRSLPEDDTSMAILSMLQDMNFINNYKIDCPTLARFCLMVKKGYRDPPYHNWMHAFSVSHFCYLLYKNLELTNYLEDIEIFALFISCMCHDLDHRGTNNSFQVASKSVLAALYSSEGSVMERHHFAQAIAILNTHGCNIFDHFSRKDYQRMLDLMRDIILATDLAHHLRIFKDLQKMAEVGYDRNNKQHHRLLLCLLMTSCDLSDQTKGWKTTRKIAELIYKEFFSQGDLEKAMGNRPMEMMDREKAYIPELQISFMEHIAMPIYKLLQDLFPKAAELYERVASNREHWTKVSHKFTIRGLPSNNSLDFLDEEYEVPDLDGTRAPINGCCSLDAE

In the case of `Cc1ncn(-c2nc3c(C(=O)N[C@@H](c4ccc(OC(F)(F)F)cc4)C(C)(C)O)cnn3cc2C)n1` [Example 161, N-((1S)-2-hydroxy-2-methyl-1-(4-(trifluoromethoxy)phenyl)propyl)-6-methyl-5-(3-methyl-1H-1,2,4-triazol-1-yl)pyrazolo[1,5-a]pyrimidine-3-carboxamide], on human PDE2A3 enzyme, the inhibition at 1 µM was 100%. Besides, the “improvement effect on MK-801-induced deficits in contextual fear conditioning test (freezing)” value in the test on Male C57BL/6 mice is reported as “improvement effect on MK-801-induced deficits was shown”.
Consider `Cc1cn(-c2nc3c(C(=O)N[C@@H](c4ccc(OC(F)(F)F)cc4)C(C)(C)O)cnn3cc2C)nn1` [Example 80, N-((1S)-2-hydroxy-2-methyl-1-(4-(trifluoromethoxy)phenyl)propyl)-6-methyl-5-(4-methyl-1H-1,2,3-triazol-1-yl)pyrazolo[1,5-a]pyrimidine-3-carboxamide], for which the inhibition at 1 µM on human PDE2A3 enzyme was found to be 100%. Moreover, in the test on Male C57BL/6 mice, the “improvement effect on MK-801-induced deficits in contextual fear conditioning test (freezing)” value is recorded as “improvement effect on MK-801-induced deficits was shown”.
